Laboratory results as given in patent publication US20050150764A1 (priority 2001, published 2005).
Where two headings read alike, the source gives them in different places.

Assays:
[1] = logP (pH 2); conditions: for logP (pH 2): intermediates of formula (VIIa), Table 6

SMILES | logP (pH 2) | also measured
O=C(c1cccc(F)c1)C(Br)CCCl (stereo not drawn) [Example V-2] | 3.47 | –
O=C(c1cccc(OC(F)(F)F)c1)C(Br)CCCl (stereo not drawn) [Example V-3] | 4.19 | –
O=C(c1cccc(Br)c1)C(Br)CCCl (stereo not drawn) [Example V-4] | 4.02 | –
FC(F)(F)c1cccc(C2=NNCCC2n2cc(Cl)cn2)c1 (stereo not drawn) [II-2] | 3.09 | –
Fc1cccc(C2=NNCCC2n2cc(Cl)cn2)c1 (stereo not drawn) [II-3] | 2.59 | –
Clc1cccc(C2=NNCCC2n2cc(Cl)cn2)c1 (stereo not drawn) [II-4] | 2.93 | –
FC(F)(F)Oc1cccc(C2=NNCCC2n2cc(Cl)cn2)c1 (stereo not drawn) [II-5] | 3.32 | –
Clc1cnn(C2CCNN=C2c2cccc(Br)c2)c1 (stereo not drawn) [II-6] | 3.03 | –
N#Cc1cnn(C2CCNN=C2c2cccc(Cl)c2)c1 (stereo not drawn) [II-7] | 2.40 | –
N#Cc1cnn(C2CCNN=C2c2cccc(Br)c2)c1 (stereo not drawn) [II-8] | 2.49 | –
N#Cc1cccc(C2=NNCCC2n2cc(C#N)cn2)c1 (stereo not drawn) [II-9] | 1.83 | –
N#Cc1cccc(C(=O)C(CCCl)n2cc(Cl)cn2)c1 (stereo not drawn) [IV-1, 3′-cyano-2-(4-chloropyrazol-1-yl)-4-chlorobutyrophenone] | – | logP [1]: 2.95
O=C(c1cccc(C(F)(F)F)c1)C(CCCl)n1cc(Cl)cn1 (stereo not drawn) [IV-2] | 3.84 | –
O=C(c1cccc(F)c1)C(CCCl)n1cc(Cl)cn1 (stereo not drawn) [IV-3] | 3.31 | –
O=C(c1cccc(Cl)c1)C(CCCl)n1cc(Cl)cn1 (stereo not drawn) [IV-4] | 3.68 | –
O=C(c1cccc(OC(F)(F)F)c1)C(CCCl)n1cc(Cl)cn1 (stereo not drawn) [IV-5] | 3.99 | –
O=C(c1cccc(Br)c1)C(CCCl)n1cc(Cl)cn1 (stereo not drawn) [IV-6] | 3.78 | –
N#Cc1cnn(C(CCCl)C(=O)c2cccc(Cl)c2)c1 (stereo not drawn) [IV-7] | 3.06 | –
N#Cc1cnn(C(CCCl)C(=O)c2cccc(Br)c2)c1 (stereo not drawn) [IV-8] | 3.13 | –
N#Cc1cccc(C(=O)C(CCCl)n2cc(C#N)cn2)c1 (stereo not drawn) [IV-9] | 2.41 | –
N#Cc1cccc(C(=O)CCCCl)c1 [VI-1, 3′-cyano-4-chlorobutyrophenone] | – | logP [1]: 2.49
O=C(CCCCl)c1cccc(OC(F)(F)F)c1 [VI-2] | 3.71 | –
O=C(CCCCl)c1cccc(Br)c1 [VI-3] | 3.50 | –
O=C1OCCC1C(=O)c1cccc(C(F)(F)F)c1 (stereo not drawn) [VIIa-2] | – | logP (pH 2) [1]: 2.42
O=C1OCCC1C(=O)c1cccc(F)c1 (stereo not drawn) [VIIa-3] | – | logP (pH 2) [1]: 1.77
O=C1OCCC1C(=O)c1cccc(OC(F)(F)F)c1 (stereo not drawn) [VIIa-4] | 2.59 | –
O=C1OCCC1C(=O)c1cccc(Br)c1 (stereo not drawn) [Vlla-5] | 2.22 | –
